# Assay results published in ChEMBL document CHEMBL4196074, “Metallomics for Alzheimer's disease treatment: Use of new generation of chelators combining metal-cation binding and transport properties” (Eur J Med Chem, 2018).
# Active and inactive are the calls of the source. Unless noted, no cut-off for these calls is given here.
# Test system: SH-SY5Y
# Test: Antiproliferative activity against human SH-SY5Y cells at 1 uM after 24 to 72 hrs by WST1 assay
# Type: cell-based
# Details: not given
row,SMILES,Activity
1,Cc1ncc(CO)c(/C=N/NC(=O)CC[C@@H](C)[C@H]2CC[C@H]3[C@@H]4[C@H](O)C[C@@H]5C[C@H](O)CC[C@]5(C)[C@H]4C[C@H](O)[C@]23C)c1O,Non-Toxic
2,C[C@H](CCC(=O)N/N=C/c1ccc(C(C)(C)C)cc1O)[C@H]1CC[C@H]2[C@@H]3[C@H](O)C[C@@H]4C[C@H](O)CC[C@]4(C)[C@H]3C[C@H](O)[C@]12C,Non-Toxic
3,COc1ccc(Nc2c(NN=C(c3ccccn3)c3ccccn3)c(=O)c2=O)cc1,Non-Toxic

# Test system: SH-SY5Y
# Test: Inhibition of Zn2+-mediated amyloid beta (1 to 42 residues) production in human SH-SY5Y cells expressing APPswe mutant at 1 uM after 72 hrs by ELISA based spectrophotometric analysis
# Type: cell-based
# Details: not given
row,SMILES,inhibition
1,Cc1ncc(CO)c(/C=N/NC(=O)CC[C@@H](C)[C@H]2CC[C@H]3[C@@H]4[C@H](O)C[C@@H]5C[C@H](O)CC[C@]5(C)[C@H]4C[C@H](O)[C@]23C)c1O,inactive

# Test system: SH-SY5Y
# Test: Inhibition of Zn2+-mediated ROS generation in human SH-SY5Y cells expressing APPswe mutant at 1 uM after 72 hrs by DCF-DA dye-based fluorescence spectroscopic analysis
# Type: cell-based
# Details: not given
row,SMILES,inhibition
1,Cc1ncc(CO)c(/C=N/NC(=O)CC[C@@H](C)[C@H]2CC[C@H]3[C@@H]4[C@H](O)C[C@@H]5C[C@H](O)CC[C@]5(C)[C@H]4C[C@H](O)[C@]23C)c1O,Active

# Test system: SH-SY5Y
# Test: Inhibition of Zn2+-induced caspase-3 activity in human SH-SY5Y cells expressing APPswe mutant at 1 uM after 72 hrs by AcDEVD substrate-based spectrophotometric analysis
# Type: cell-based
# Details: not given
row,SMILES,inhibition
1,Cc1ncc(CO)c(/C=N/NC(=O)CC[C@@H](C)[C@H]2CC[C@H]3[C@@H]4[C@H](O)C[C@@H]5C[C@H](O)CC[C@]5(C)[C@H]4C[C@H](O)[C@]23C)c1O,Active

# Test system: SH-SY5Y
# Test: Effect on morphological changes in human SH-SY5Y cells expressing APPswe mutant assessed as decrease in adherent cell number at 1 uM after 72 hrs
# Type: ADME, cell-based
# Details: not given
row,SMILES,Activity
1,COc1ccc(Nc2c(NN=C(c3ccccn3)c3ccccn3)c(=O)c2=O)cc1,Toxic

# Test system: SH-SY5Y
# Test: Effect on morphological changes in human SH-SY5Y cells expressing APPswe mutant assessed as alteration of cell shape at 1 uM after 72 hrs
# Type: ADME, cell-based
# Details: not given
row,SMILES,Activity
1,COc1ccc(Nc2c(NN=C(c3ccccn3)c3ccccn3)c(=O)c2=O)cc1,Toxic

# Test system: SH-SY5Y
# Test: Inhibition of Zn2+-induced toxicity in human SH-SY5Y cells expressing APPswe mutant assessed as increase in cell viability at 1 uM after 72 hrs by WST1 assay
# Type: cell-based
# Details: not given
row,SMILES,inhibition
1,Cc1ncc(CO)c(/C=N/NC(=O)CC[C@@H](C)[C@H]2CC[C@H]3[C@@H]4[C@H](O)C[C@@H]5C[C@H](O)CC[C@]5(C)[C@H]4C[C@H](O)[C@]23C)c1O,Active

# Test system: not listed separately
# Test: Effective permeability of the compound at 10^-5 mol/L after 5 hrs by UV-based PAMPA
# Type: ADME
# Details: read-out: Peff
row,SMILES,"Papp at 5 h, 10 µM [×10⁻⁶ cm/s]"
1,Cc1ncc(CO)c(/C=N/NC(=O)CC[C@@H](C)[C@H]2CC[C@H]3[C@@H]4[C@H](O)C[C@@H]5C[C@H](O)CC[C@]5(C)[C@H]4C[C@H](O)[C@]23C)c1O,7.5

# Target: Acetylcholinesterase (Homo sapiens) (UniProt P22303)
# Sequence (P22303 whole entry): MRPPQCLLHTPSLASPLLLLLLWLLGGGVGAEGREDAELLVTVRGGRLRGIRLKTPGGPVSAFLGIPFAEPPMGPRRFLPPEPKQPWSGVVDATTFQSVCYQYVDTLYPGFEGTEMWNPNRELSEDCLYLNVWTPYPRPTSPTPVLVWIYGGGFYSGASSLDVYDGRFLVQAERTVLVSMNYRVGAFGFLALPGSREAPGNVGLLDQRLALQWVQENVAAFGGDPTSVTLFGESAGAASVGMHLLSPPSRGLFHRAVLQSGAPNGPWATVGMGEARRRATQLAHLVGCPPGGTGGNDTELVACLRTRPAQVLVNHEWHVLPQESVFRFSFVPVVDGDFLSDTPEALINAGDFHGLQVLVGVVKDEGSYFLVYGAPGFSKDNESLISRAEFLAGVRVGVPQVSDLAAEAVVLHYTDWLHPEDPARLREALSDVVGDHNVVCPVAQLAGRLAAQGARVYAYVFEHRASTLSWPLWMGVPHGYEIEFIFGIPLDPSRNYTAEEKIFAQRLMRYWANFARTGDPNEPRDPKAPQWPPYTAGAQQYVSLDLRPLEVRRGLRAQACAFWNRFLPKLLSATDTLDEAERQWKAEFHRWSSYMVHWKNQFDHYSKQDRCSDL
# Test: Inhibition of acetylcholinesterase (unknown origin) at 1 uM using acetylthiocholine chloride as substrate measured for 5 to 40 mins
# Details: not given
row,SMILES,inhibition
1,Cc1ncc(CO)c(/C=N/NC(=O)CC[C@@H](C)[C@H]2CC[C@H]3[C@@H]4[C@H](O)C[C@@H]5C[C@H](O)CC[C@]5(C)[C@H]4C[C@H](O)[C@]23C)c1O,inactive
2,C[C@H](CCC(=O)N/N=C/c1ccc(C(C)(C)C)cc1O)[C@H]1CC[C@H]2[C@@H]3[C@H](O)C[C@@H]4C[C@H](O)CC[C@]4(C)[C@H]3C[C@H](O)[C@]12C,inactive
3,COc1ccc(Nc2c(NN=C(c3ccccn3)c3ccccn3)c(=O)c2=O)cc1,inactive

# Test system: SH-SY5Y
# Test: Neuroprotective activity against amyloid beta (1 to 42 residues) induced cell death in human SH-SY5Y cells expressing APPswe mutant at 1 uM after 48 hrs by WST1 assay
# Type: functional, cell-based
# Details: not given
row,SMILES,Activity
1,Cc1ncc(CO)c(/C=N/NC(=O)CC[C@@H](C)[C@H]2CC[C@H]3[C@@H]4[C@H](O)C[C@@H]5C[C@H](O)CC[C@]5(C)[C@H]4C[C@H](O)[C@]23C)c1O,Active
2,C[C@H](CCC(=O)N/N=C/c1ccc(C(C)(C)C)cc1O)[C@H]1CC[C@H]2[C@@H]3[C@H](O)C[C@@H]4C[C@H](O)CC[C@]4(C)[C@H]3C[C@H](O)[C@]12C,Active
3,COc1ccc(Nc2c(NN=C(c3ccccn3)c3ccccn3)c(=O)c2=O)cc1,inactive

# Test system: not listed separately
# Test: Metal chelating activity assessed as compound-Zn2+ complex formation by UV-vis spectrophotometric analysis
# Details: not given
row,SMILES,Activity
1,Cc1ncc(CO)c(/C=N/NC(=O)CC[C@@H](C)[C@H]2CC[C@H]3[C@@H]4[C@H](O)C[C@@H]5C[C@H](O)CC[C@]5(C)[C@H]4C[C@H](O)[C@]23C)c1O,Active
2,C[C@H](CCC(=O)N/N=C/c1ccc(C(C)(C)C)cc1O)[C@H]1CC[C@H]2[C@@H]3[C@H](O)C[C@@H]4C[C@H](O)CC[C@]4(C)[C@H]3C[C@H](O)[C@]12C,inactive
3,COc1ccc(Nc2c(NN=C(c3ccccn3)c3ccccn3)c(=O)c2=O)cc1,inactive

# Test system: not listed separately
# Test: Metal chelating activity assessed as compound-Fe3+ complex formation by UV-vis spectrophotometric analysis
# Details: not given
row,SMILES,Activity
1,Cc1ncc(CO)c(/C=N/NC(=O)CC[C@@H](C)[C@H]2CC[C@H]3[C@@H]4[C@H](O)C[C@@H]5C[C@H](O)CC[C@]5(C)[C@H]4C[C@H](O)[C@]23C)c1O,Active
2,C[C@H](CCC(=O)N/N=C/c1ccc(C(C)(C)C)cc1O)[C@H]1CC[C@H]2[C@@H]3[C@H](O)C[C@@H]4C[C@H](O)CC[C@]4(C)[C@H]3C[C@H](O)[C@]12C,Active
3,COc1ccc(Nc2c(NN=C(c3ccccn3)c3ccccn3)c(=O)c2=O)cc1,Active

# Test system: not listed separately
# Test: Metal chelating activity assessed as compound-Cu2+ complex formation by UV-vis spectrophotometric analysis
# Details: not given
row,SMILES,Activity
1,Cc1ncc(CO)c(/C=N/NC(=O)CC[C@@H](C)[C@H]2CC[C@H]3[C@@H]4[C@H](O)C[C@@H]5C[C@H](O)CC[C@]5(C)[C@H]4C[C@H](O)[C@]23C)c1O,Active
2,C[C@H](CCC(=O)N/N=C/c1ccc(C(C)(C)C)cc1O)[C@H]1CC[C@H]2[C@@H]3[C@H](O)C[C@@H]4C[C@H](O)CC[C@]4(C)[C@H]3C[C@H](O)[C@]12C,Active
3,COc1ccc(Nc2c(NN=C(c3ccccn3)c3ccccn3)c(=O)c2=O)cc1,Active

# Test system: SH-SY5Y
# Test: Inhibition of Cu2+-mediated amyloid beta (1 to 42 residues) production in human SH-SY5Y cells expressing APPswe mutant at 1 uM after 72 hrs by ELISA based spectrophotometric analysis
# Type: cell-based
# Details: not given
row,SMILES,inhibition
1,Cc1ncc(CO)c(/C=N/NC(=O)CC[C@@H](C)[C@H]2CC[C@H]3[C@@H]4[C@H](O)C[C@@H]5C[C@H](O)CC[C@]5(C)[C@H]4C[C@H](O)[C@]23C)c1O,inactive
2,C[C@H](CCC(=O)N/N=C/c1ccc(C(C)(C)C)cc1O)[C@H]1CC[C@H]2[C@@H]3[C@H](O)C[C@@H]4C[C@H](O)CC[C@]4(C)[C@H]3C[C@H](O)[C@]12C,inactive
3,COc1ccc(Nc2c(NN=C(c3ccccn3)c3ccccn3)c(=O)c2=O)cc1,Active

# Test system: SH-SY5Y
# Test: Inhibition of Fe3+-mediated amyloid beta (1 to 42 residues) production in human SH-SY5Y cells expressing APPswe mutant at 1 uM after 72 hrs by ELISA based spectrophotometric analysis
# Type: cell-based
# Details: not given
row,SMILES,inhibition
1,Cc1ncc(CO)c(/C=N/NC(=O)CC[C@@H](C)[C@H]2CC[C@H]3[C@@H]4[C@H](O)C[C@@H]5C[C@H](O)CC[C@]5(C)[C@H]4C[C@H](O)[C@]23C)c1O,inactive
2,C[C@H](CCC(=O)N/N=C/c1ccc(C(C)(C)C)cc1O)[C@H]1CC[C@H]2[C@@H]3[C@H](O)C[C@@H]4C[C@H](O)CC[C@]4(C)[C@H]3C[C@H](O)[C@]12C,inactive
3,COc1ccc(Nc2c(NN=C(c3ccccn3)c3ccccn3)c(=O)c2=O)cc1,Active

# Test system: SH-SY5Y
# Test: Inhibition of Cu2+-mediated ROS generation in human SH-SY5Y cells expressing APPswe mutant at 1 uM after 72 hrs by DCF-DA dye-based fluorescence spectroscopic analysis
# Type: cell-based
# Details: not given
row,SMILES,inhibition
1,Cc1ncc(CO)c(/C=N/NC(=O)CC[C@@H](C)[C@H]2CC[C@H]3[C@@H]4[C@H](O)C[C@@H]5C[C@H](O)CC[C@]5(C)[C@H]4C[C@H](O)[C@]23C)c1O,Active
2,C[C@H](CCC(=O)N/N=C/c1ccc(C(C)(C)C)cc1O)[C@H]1CC[C@H]2[C@@H]3[C@H](O)C[C@@H]4C[C@H](O)CC[C@]4(C)[C@H]3C[C@H](O)[C@]12C,Active
3,COc1ccc(Nc2c(NN=C(c3ccccn3)c3ccccn3)c(=O)c2=O)cc1,Active

# Test system: SH-SY5Y
# Test: Inhibition of Fe3+-mediated ROS generation in human SH-SY5Y cells expressing APPswe mutant at 1 uM after 72 hrs by DCF-DA dye-based fluorescence spectroscopic analysis
# Type: cell-based
# Details: not given
row,SMILES,inhibition
1,Cc1ncc(CO)c(/C=N/NC(=O)CC[C@@H](C)[C@H]2CC[C@H]3[C@@H]4[C@H](O)C[C@@H]5C[C@H](O)CC[C@]5(C)[C@H]4C[C@H](O)[C@]23C)c1O,Active
2,C[C@H](CCC(=O)N/N=C/c1ccc(C(C)(C)C)cc1O)[C@H]1CC[C@H]2[C@@H]3[C@H](O)C[C@@H]4C[C@H](O)CC[C@]4(C)[C@H]3C[C@H](O)[C@]12C,Active
3,COc1ccc(Nc2c(NN=C(c3ccccn3)c3ccccn3)c(=O)c2=O)cc1,Active

# Test system: SH-SY5Y
# Test: Inhibition of Cu2+-induced caspase-3 activity in human SH-SY5Y cells expressing APPswe mutant at 1 uM after 72 hrs by AcDEVD substrate-based spectrophotometric analysis
# Type: cell-based
# Details: not given
row,SMILES,inhibition
1,Cc1ncc(CO)c(/C=N/NC(=O)CC[C@@H](C)[C@H]2CC[C@H]3[C@@H]4[C@H](O)C[C@@H]5C[C@H](O)CC[C@]5(C)[C@H]4C[C@H](O)[C@]23C)c1O,Active
2,C[C@H](CCC(=O)N/N=C/c1ccc(C(C)(C)C)cc1O)[C@H]1CC[C@H]2[C@@H]3[C@H](O)C[C@@H]4C[C@H](O)CC[C@]4(C)[C@H]3C[C@H](O)[C@]12C,Active

# Test system: SH-SY5Y
# Test: Inhibition of Fe3+-induced caspase-3 activity in human SH-SY5Y cells expressing APPswe mutant at 1 uM after 72 hrs by AcDEVD substrate-based spectrophotometric analysis
# Type: cell-based
# Details: not given
row,SMILES,inhibition
1,Cc1ncc(CO)c(/C=N/NC(=O)CC[C@@H](C)[C@H]2CC[C@H]3[C@@H]4[C@H](O)C[C@@H]5C[C@H](O)CC[C@]5(C)[C@H]4C[C@H](O)[C@]23C)c1O,Active
2,C[C@H](CCC(=O)N/N=C/c1ccc(C(C)(C)C)cc1O)[C@H]1CC[C@H]2[C@@H]3[C@H](O)C[C@@H]4C[C@H](O)CC[C@]4(C)[C@H]3C[C@H](O)[C@]12C,Active

# Test system: SH-SY5Y
# Test: Inhibition of Cu2+-induced toxicity in human SH-SY5Y cells expressing APPswe mutant assessed as increase in cell viability at 1 uM after 72 hrs by WST1 assay
# Type: cell-based
# Details: not given
row,SMILES,inhibition
1,Cc1ncc(CO)c(/C=N/NC(=O)CC[C@@H](C)[C@H]2CC[C@H]3[C@@H]4[C@H](O)C[C@@H]5C[C@H](O)CC[C@]5(C)[C@H]4C[C@H](O)[C@]23C)c1O,Active
2,C[C@H](CCC(=O)N/N=C/c1ccc(C(C)(C)C)cc1O)[C@H]1CC[C@H]2[C@@H]3[C@H](O)C[C@@H]4C[C@H](O)CC[C@]4(C)[C@H]3C[C@H](O)[C@]12C,Active

# Test system: SH-SY5Y
# Test: Inhibition of Fe3+-induced toxicity in human SH-SY5Y cells expressing APPswe mutant assessed as increase in cell viability at 1 uM after 72 hrs by WST1 assay
# Type: cell-based
# Details: not given
row,SMILES,inhibition
1,Cc1ncc(CO)c(/C=N/NC(=O)CC[C@@H](C)[C@H]2CC[C@H]3[C@@H]4[C@H](O)C[C@@H]5C[C@H](O)CC[C@]5(C)[C@H]4C[C@H](O)[C@]23C)c1O,Active
2,C[C@H](CCC(=O)N/N=C/c1ccc(C(C)(C)C)cc1O)[C@H]1CC[C@H]2[C@@H]3[C@H](O)C[C@@H]4C[C@H](O)CC[C@]4(C)[C@H]3C[C@H](O)[C@]12C,Active
